In patent publication US9155795B2, “CXCR4 receptor compounds” (Anchor Therapeutics, Inc., priority 2010, dated 2015):
Where a SMILES comes first, the peptide text is derived from it. [ ]: non-standard residue; d: D form. The star is where a group is joined. Ala(3-Me-diazirin-3-yl) = CC1(C[C@H](N)C(=O)O)N=N1; Palmitoyl = CCCCCCCCCCCCCCCC(=O)*; Hyp = O=C(O)[C@@H]1C[C@@H](O)CN1; Cit = NC(=O)NCCC[C@H](N)C(=O)O; Nle = CCCC[C@H](N)C(=O)O; Pra = C#CC[C@H](N)C(=O)O

Target: T1, CXCR4 (Homo sapiens, UniProt P61073)
T1 construct: CCRF-CEM cells, a human T-cell ALL line that endogenously expresses CXCR4; endogenous in cells; host or cells: CCRF-CEM (human T-cell acute lymphoblastic leukemia line)
Test: Calcium flux assay, agonist mode, Flexstation (CCRF-CEM cells)
Format: cell-based
Conditions: for Emax: CCRF-CEM, percent of maximum response compared with SDF-1α, read-out: % Intrinsic Activity
Text: Calcium Flux Assay is one of the most popular cell-based GPCR functional assays. It most often uses calcium sensing fluorescent dyes such as fura2 AM, fluo-4 and Calcium-4 to measure changes in intracellular calcium concentration. It is used mainly to detect GPCR signaling via Gαq subunit. Activation of these Gq-coupled GPCRs leads to activation of phospholipase C, which subsequently leads to increase in inositol phosphate production. IP3 receptors on endoplasmic reticulum sense the change then release calcium into cytoplasm. Intracellular calcium binding to the fluorescent dyes can be detected by instruments that quantify fluorescent intensities, such as FLIPR Tetra, Flexstation (MDS) and FDSS (Hamamatsu). In addition, to assess Gq-couple receptor signaling, a calcium flux assay can also be used to study Gs and Gi couple receptors by co-expressing CNG (cyclic nucleotide gated calcium channel) or chimeric G-proteins (Gqi5, Gsi5 for example). Activation of some Gi-coupled receptors can also be detected by calcium flux assay via Gβγ mediated phospholipase C activation.
The calcium flux assay was used to assess the test compounds' ability to activate the CXCR4 receptor in CCRF-CEM cells (human T lymphoblasts from acute lymphoblastic leukemia). […] After dye loading by incubating with Calcium-4 dye at 37° C. for 1 hour, cell plates were read at 37° C. using the using the Flexstation 3 workstation. Receptor activation was assessed by measuring changes in fluorescent intensity after the addition of the test compounds or the reference agonist SDF-1α on the using the Flexstation 3 workstation. EC50
and percent intrinsic actively were derived from the data collected. Intrinsic activity refers to the efficacy of the test compound and is calculated as the percent of maximum response compared with the response of the reference standard (i.e., natural agonist, SDF-1α).

T1 sequence (P61073 whole entry): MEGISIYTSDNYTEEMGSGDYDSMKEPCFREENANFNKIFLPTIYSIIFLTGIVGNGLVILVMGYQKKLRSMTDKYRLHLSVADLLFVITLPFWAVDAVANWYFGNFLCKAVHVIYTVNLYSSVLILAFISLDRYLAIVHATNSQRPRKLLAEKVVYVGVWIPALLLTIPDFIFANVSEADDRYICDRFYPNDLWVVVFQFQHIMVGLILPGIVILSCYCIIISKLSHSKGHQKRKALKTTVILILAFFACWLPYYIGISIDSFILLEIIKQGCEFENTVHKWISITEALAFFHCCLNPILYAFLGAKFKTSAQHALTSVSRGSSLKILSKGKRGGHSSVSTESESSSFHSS

| Compound | Emax [%] | EC50 (calcium flux) [nM] |
| --- | --- | --- |
| CCCCCCCCCCCCCCCC(=O)N[C@@H](CCSC)C(=O)NCC(=O)N[C@@H](Cc1ccc(O)cc1)C(=O)N[C@@H](CCC(N)=O)C(=O)N[C@@H](CCCCN)C(=O)N[C@@H](CCCCN)C(=O)N[C@@H](CC(C)C)C(=O)N[C@@H](CCCNC(=N)N)C(=O)N[C@@H](CO)C(=O)N[C@@H](CCSC)C(=O)N[C@H](C(=O)N[C@@H](CC(=O)O)C(=O)N[C@@H](CCCCN)C(=O)N[C@@H](Cc1ccc(O)cc1)C(=O)N[C@@H](CCCNC(N)=O)C(=O)N[C@@H](CC(C)C)C(N)=O)[C@@H](C)O [Compound 14] (Palmitoyl-MGYQKKLRSMTDKY[Cit]L-NH2) | 3.61 |  |
| CCCCCCCCCCCCCCCC(=O)NCC(=O)NCC(=O)N[C@@H](Cc1ccc(O)cc1)C(=O)N[C@@H](CCC(N)=O)C(=O)N[C@@H](CCCCN)C(=O)N[C@@H](CCCCN)C(=O)N[C@@H](CC(C)C)C(=O)N[C@@H](CCCNC(=N)N)C(=O)N[C@H](C(=O)N[C@@H](C)C(=O)N[C@H](C(=O)N[C@@H](CC(=O)O)C(=O)N[C@@H](CCCCN)C(=O)N[C@@H](Cc1ccc(O)cc1)C(=O)N[C@@H](CCCNC(=N)N)C(=O)N[C@@H](CC(C)C)C(N)=O)[C@@H](C)O)[C@@H](C)O [Compound 41] (Palmitoyl-GGYQKKLRTATDKYRL-NH2; C-terminus assumed) | 149 |  |
| CCCCCCCCCCCCCCCC(=O)N[C@@H](CS)C(=O)NCC(=O)N[C@@H](Cc1ccc(O)cc1)C(=O)N[C@@H](CCC(N)=O)C(=O)N[C@@H](CCCCN)C(=O)N[C@@H](CCCCN)C(=O)N[C@@H](CC(C)C)C(=O)N[C@@H](CCCNC(=N)N)C(=O)N[C@@H](CO)C(=O)N[C@@H](C)C(=O)N[C@H](C(=O)N[C@@H](CC(=O)O)C(=O)N[C@@H](CCCCN)C(=O)N[C@@H](Cc1ccc(O)cc1)C(=O)N[C@@H](CCCNC(=N)N)C(=O)N[C@@H](CC(C)C)C(N)=O)[C@@H](C)O [Compound 30] (Palmitoyl-CGYQKKLRSATDKYRL-NH2; C-terminus assumed) | 95.3 |  |
| CCCCCCCCCCCCCCCC(=O)NCC(=O)NCC(=O)N[C@@H](Cc1ccc(O)cc1)C(=O)N[C@@H](CCC(N)=O)C(=O)N[C@@H](CCCCN)C(=O)N[C@@H](CCCCN)C(=O)N[C@@H](CC(C)C)C(=O)N[C@@H](CCCNC(=N)N)C(=O)N1CCC[C@@H]1C(=O)N[C@@H](C)C(=O)N[C@H](C(=O)N[C@@H](CC(=O)O)C(=O)N[C@@H](CCCCN)C(=O)N[C@@H](Cc1ccccc1)C(=O)N[C@@H](CCCNC(=N)N)C(=O)N[C@@H](CC(C)C)C(N)=O)[C@@H](C)O [Compound 29] (Palmitoyl-GGYQKKLR[dP]ATDKFRL-NH2; C-terminus assumed) | 88.9 |  |
| CCCCCCCCCCCCCCCC(=O)NCC(=O)NCC(=O)N[C@@H](Cc1ccc(O)cc1)C(=O)N[C@@H](CCC(N)=O)C(=O)N[C@@H](CCCCN)C(=O)N[C@@H](CCCCN)C(=O)N[C@@H](CC(C)C)C(=O)N[C@@H](CCCNC(=N)N)C(=O)N[C@@H](CO)C(=O)N[C@@H](C)C(=O)N[C@H](C(=O)N[C@@H](CC(=O)O)C(=O)N[C@@H](CCCCN)C(=O)N[C@@H](Cc1ccc(O)cc1)C(=O)N[C@@H](CCCNC(=N)N)C(=O)N[C@@H](CC(C)C)C(N)=O)[C@@H](C)O [Compound 25] (Palmitoyl-GGYQKKLRSATDKYRL-NH2; C-terminus assumed) | 89.4 |  |
| C#CC[C@H](NC(=O)CCCCCCCCCCCCCCC)C(=O)NCC(=O)N[C@@H](Cc1ccc(O)cc1)C(=O)N[C@@H](CCC(N)=O)C(=O)N[C@@H](CCCCN)C(=O)N[C@@H](CCCCN)C(=O)N[C@@H](CC(C)C)C(=O)N[C@@H](CCCNC(=N)N)C(=O)N[C@@H](CO)C(=O)N[C@@H](CCSC)C(=O)N[C@H](C(=O)N[C@@H](CC(=O)O)C(=O)N[C@@H](CCCCN)C(=O)N[C@@H](Cc1ccc(O)cc1)C(=O)N[C@@H](CCCNC(=N)N)C(=O)N[C@@H](CC(C)C)C(N)=O)[C@@H](C)O [Compound 24] (Palmitoyl-[Pra]GYQKKLRSMTDKYRL-NH2; C-terminus assumed) | 76.6 |  |
| CCCCCCCCCCCCCCCC(=O)NCC(=O)NCC(=O)N[C@@H](Cc1ccc(O)cc1)C(=O)N[C@@H](CCC(N)=O)C(=O)N[C@@H](CCCCN)C(=O)N[C@@H](CCCCN)C(=O)N[C@@H](CC(C)C)C(=O)N[C@@H](CCCNC(=N)N)C(=O)N1CCC[C@@H]1C(=O)N[C@@H](Cc1c[nH]c2ccccc12)C(=O)N[C@H](C(=O)N[C@@H](CC(=O)O)C(=O)N[C@@H](CCCCN)C(=O)N[C@@H](Cc1ccc(O)cc1)C(=O)N[C@@H](CCCNC(=N)N)C(=O)N[C@@H](CC(C)C)C(N)=O)[C@@H](C)O [Compound 33] (Palmitoyl-GGYQKKLR[dP]WTDKYRL-NH2; C-terminus assumed) | 93 |  |
| CCCCCCCCCCCCCCCC(=O)NCC(=O)NCC(=O)N[C@@H](Cc1ccc(O)cc1)C(=O)N[C@@H](CCC(N)=O)C(=O)N[C@@H](CCCCN)C(=O)N[C@@H](CCCCN)C(=O)N[C@@H](CC1(C)N=N1)C(=O)N[C@@H](CCCNC(=N)N)C(=O)N[C@@H](CO)C(=O)N[C@@H](C)C(=O)N[C@H](C(=O)N[C@@H](CC(=O)O)C(=O)N[C@@H](CCCCN)C(=O)N[C@@H](Cc1ccc(O)cc1)C(=O)N[C@@H](CCCNC(=N)N)C(=O)N[C@@H](CC(C)C)C(N)=O)[C@@H](C)O [Compound 37] (Palmitoyl-GGYQKK[Ala(3-Me-diazirin-3-yl)]RSATDKYRL-NH2; C-terminus assumed) | 85.7 | 71.1 |
| CCCCCCCCCCCCCCCC(=O)NCC(=O)NCC(=O)N[C@@H](Cc1ccc(O)cc1)C(=O)N[C@@H](CCC(N)=O)C(=O)N[C@@H](CCCCN)C(=O)N[C@@H](CCCCN)C(=O)N[C@@H](CC(C)C)C(=O)N[C@@H](CCCNC(=N)N)C(=O)N1C[C@H](O)C[C@H]1C(=O)N[C@@H](Cc1c[nH]cn1)C(=O)N[C@H](C(=O)N[C@@H](CC(=O)O)C(=O)N[C@@H](CCCCN)C(=O)N[C@@H](Cc1ccc(O)cc1)C(=O)N[C@@H](CCCNC(=N)N)C(=O)N[C@@H](CC(C)C)C(N)=O)[C@@H](C)O [Compound 35] (Palmitoyl-GGYQKKLR[Hyp]HTDKYRL-NH2; C-terminus assumed) | 89.4 |  |
| CCCCCCCCCCCCCCCC(=O)NCC(=O)NCC(=O)N[C@@H](Cc1ccc(O)cc1)C(=O)N[C@@H](CCC(N)=O)C(=O)N[C@@H](CCCCN)C(=O)N[C@@H](CCCCN)C(=O)N[C@@H](Cc1c[nH]cn1)C(=O)N[C@@H](CCCNC(=N)N)C(=O)N[C@@H](CO)C(=O)N[C@@H](C)C(=O)N[C@H](C(=O)N[C@@H](CC(=O)O)C(=O)N[C@@H](CCCCN)C(=O)N[C@@H](Cc1ccc(O)cc1)C(=O)N[C@@H](CCCNC(=N)N)C(=O)N[C@@H](CC(C)C)C(N)=O)[C@@H](C)O [Compound 38] (Palmitoyl-GGYQKKHRSATDKYRL-NH2; C-terminus assumed) | 86.8 |  |
| CCCCCCCCCCCCCCCC(=O)N[C@@H](CCSC)C(=O)NCC(=O)N[C@@H](Cc1ccc(O)cc1)C(=O)N[C@@H](CCC(N)=O)C(=O)N[C@@H](CCCCN)C(=O)N[C@@H](CCCCN)C(=O)N[C@@H](CC(C)C)C(=O)N[C@@H](CCCNC(=N)N)C(=O)N[C@@H](CO)C(=O)N[C@@H](CCCC)C(=O)N[C@H](C(=O)N[C@@H](CC(=O)O)C(=O)N[C@@H](CCCCN)C(=O)N[C@@H](Cc1ccc(O)cc1)C(=O)N[C@@H](CCCNC(=N)N)C(=O)N[C@@H](CC(C)C)C(N)=O)[C@@H](C)O [Compound 17] (Palmitoyl-MGYQKKLRS[Nle]TDKYRL-NH2; C-terminus assumed) | 62.7 |  |
| CCCCCCCCCCCCCCCC(=O)N[C@@H](CCSC)C(=O)NCC(=O)N[C@@H](Cc1ccc(O)cc1)C(=O)N[C@@H](CCC(N)=O)C(=O)N[C@@H](CCCCN)C(=O)N1CCC[C@H]1C(=O)N[C@@H](CC(C)C)C(=O)N[C@@H](CCCNC(=N)N)C(=O)N[C@@H](CO)C(=O)N[C@@H](CCSC)C(=O)N[C@H](C(=O)N[C@@H](CC(=O)O)C(=O)N[C@@H](CCCCN)C(=O)N[C@@H](Cc1ccc(O)cc1)C(=O)N[C@@H](CCCNC(=N)N)C(=O)N[C@@H](CC(C)C)C(N)=O)[C@@H](C)O [Compound 6] (Palmitoyl-MGYQKPLRSMTDKYRL-NH2; C-terminus assumed) | 90.2 |  |
| CCCCCCCCCCCCCCCC(=O)NCC(=O)NCC(=O)N[C@@H](Cc1ccc(O)cc1)C(=O)N[C@@H](CCC(N)=O)C(=O)N[C@@H](CCCCN)C(=O)N[C@@H](CCCCN)C(=O)N[C@H](CC(C)C)C(=O)N[C@@H](CCCNC(=N)N)C(=O)N[C@@H](CO)C(=O)N[C@@H](C)C(=O)N[C@H](C(=O)N[C@@H](CC(=O)O)C(=O)N[C@@H](CCCCN)C(=O)N[C@@H](Cc1ccc(O)cc1)C(=O)N[C@@H](CCCNC(=N)N)C(=O)N[C@@H](CC(C)C)C(N)=O)[C@@H](C)O [Compound 39] (Palmitoyl-GGYQKK[dL]RSATDKYRL-NH2; C-terminus assumed) | 104 |  |
| CCCCCCCCCCCCCCCC(=O)N[C@@H](CCSC)C(=O)NCC(=O)N[C@@H](Cc1ccc(O)cc1)C(=O)N[C@@H](CCC(N)=O)C(=O)N[C@@H](CCCCN)C(=O)N[C@@H](CCCCN)C(=O)N[C@@H](CC(C)C)C(=O)N[C@@H](CCCNC(=N)N)C(=O)N[C@@H](CO)C(=O)NCC(=O)N[C@H](C(=O)N[C@@H](CC(=O)O)C(=O)N[C@@H](CCCCN)C(=O)N[C@@H](Cc1ccc(O)cc1)C(=O)N[C@@H](CCCNC(=N)N)C(=O)N[C@@H](CC(C)C)C(N)=O)[C@@H](C)O [Compound 19] (Palmitoyl-MGYQKKLRSGTDKYRL-NH2; C-terminus assumed) | 101 |  |
